{"source": "patent US9693942B2", "about": "(NESTEC S.A., priority 2012, dated 2017)", "key": {"B16 murine melanocytes": {"tested_on": "B16 murine melanocytes", "experiment": "Production of melanin by B16 murine melanocyte cell line", "type": "cell-based", "conditions": "kojic acid 400 μg/mL, 72 hours, B16 cells, total melanin (extracellular and intracellular), OD 405 nm", "method": "B16 cells were cultured in DMEM 1 g/L glucose without phenol red supplemented with 10% foetal calf serum, in a humidified chamber at 37° C. and containing 5% CO2. […] This was performed in the presence or absence of NDP-MSH, an analog of MSH (melanocyte-stimulating hormone). The total quantity of melanin (extracellular and intracellular) was evaluated by measuring the optical density at 405 nm of each sample against melanin standards in the presence or absence of NDP-MSH. The control condition corresponds to a culture of B16 murine melanocytes treated just with the medium, no other compound being added."}, "tyrosinase": {"tested_on": "tyrosinase", "experiment": "Production of tyrosinase by B16 murine melanocyte cell line (immunolabeling)", "type": "cell-based", "conditions": "kojic acid 400 μg/mL, 48 hours, B16 cells", "method": "B16 cells were cultured in DMEM 1 g/L glucose without phenol red supplemented with 10% foetal calf serum, in a humidified chamber at 37° C. and containing 5% CO2. […] The production of tyrosinase was evaluated by immunolabeling. The control condition corresponds to a culture of B16 murine melanocytes treated just with the medium, no other compound being added."}}, "data": [{"smiles": "O=c1cc(CO)occ1O", "note": "[kojic acid]", "values": [{"measurement": "melanin production, percentage relative to the control", "setting": "B16 murine melanocytes", "result": 48, "unit": "%"}, {"measurement": "production of tyrosinase relative to the control", "setting": "tyrosinase", "result": "decreased"}]}]}
